According to patent US6017917A, “Guanidine derivatives” (Fujisawa Pharamceutical Co., Ltd., priority 1996, dated 2000):
pKi: −log10 of the molar value. Where a name gives a salt, the structure may show the parent alone.

Molecular target: T1, Na^+ /H^+ exchanger (Rattus norvegicus, UniProt P26431)
T1 construct: endogenous in cells; host or cells: thymocytes freshly isolated from the thymus of a male SD rat
Experiment: Inhibitory activity on Na^+ /H^+ exchange in cells (swelling of thymocytes in sodium propionate medium)
Format: cell-based, rat (SD strain)
Conditions: apparent Ki from Lineweaver-Burk plot, sodium-propionate medium pH 6.8, rate of swelling, 3-5 concentrations
Procedure: [2] Inhibitory activity on Na^+ /H^+ exchange in cells
Procedure was carried out according to a similar manner to the method described in Enzymology 173 , 777 (1989).
One male SD strain rat weighing 250-300 g was sacrificed with the blow on the head. Then, the thymus was removed into ice-cold NaCl medium (140 mM sodium chloride, 1 mM potassium chloride, 1 mM calcium chloride, 1 mM magnesium chloride, 10 mM glucose and 20 mM N-2-hydroxyethylpiperazine-N'-2-ethanesulfonic acid (HEADS)--pH 7.3), cut in small fragments, and transferred to glass homogenizer. The cells were dissociated by gentle strokes, and the resulting suspension was filtrated through six layers of surgical gauze and the filtrate was centrifuged at 4° C. at 1000 g for 5 minutes. The pellet was resuspended in RPMI 1640 medium (pH 7.3) at room temperature to adjust final cell concentration (1×10^7 cells/ml).
This method detects the swelling that accompanies activation of Na^+ /H^+ exchanger in cells incubated with sodium propionate. Propionic acid rapidly penetrates through the membrane. […]
Cell sizing and counting were performed electrically with the Coulter Counter-Channelyzer (AT-II). […] Rate of Swelling (Δ volume/min.) was measured by using 3-5 concentrations of test compound. Then, apparent Ki value of test compound was calculated by using Line weaver-Burk plot.

T1 sequence (P26431 whole entry): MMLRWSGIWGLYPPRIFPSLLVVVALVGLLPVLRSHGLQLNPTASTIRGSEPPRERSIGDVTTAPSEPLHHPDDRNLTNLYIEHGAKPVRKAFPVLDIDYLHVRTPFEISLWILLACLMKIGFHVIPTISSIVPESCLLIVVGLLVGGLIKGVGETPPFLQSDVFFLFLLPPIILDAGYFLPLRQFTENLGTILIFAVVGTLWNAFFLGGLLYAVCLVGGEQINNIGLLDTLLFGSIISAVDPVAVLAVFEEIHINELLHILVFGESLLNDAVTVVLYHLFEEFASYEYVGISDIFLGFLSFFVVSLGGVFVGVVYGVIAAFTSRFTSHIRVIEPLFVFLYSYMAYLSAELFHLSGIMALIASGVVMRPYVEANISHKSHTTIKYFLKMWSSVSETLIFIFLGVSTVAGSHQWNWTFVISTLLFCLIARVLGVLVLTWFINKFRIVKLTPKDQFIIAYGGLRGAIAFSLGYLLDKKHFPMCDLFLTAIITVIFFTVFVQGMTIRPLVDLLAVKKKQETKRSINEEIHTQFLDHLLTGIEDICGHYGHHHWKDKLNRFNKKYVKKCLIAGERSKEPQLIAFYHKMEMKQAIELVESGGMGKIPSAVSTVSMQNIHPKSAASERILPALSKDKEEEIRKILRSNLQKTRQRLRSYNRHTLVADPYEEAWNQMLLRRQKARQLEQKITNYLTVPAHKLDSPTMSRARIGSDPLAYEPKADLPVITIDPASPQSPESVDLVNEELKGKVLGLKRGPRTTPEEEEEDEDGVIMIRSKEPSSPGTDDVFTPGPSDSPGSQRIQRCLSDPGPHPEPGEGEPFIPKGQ

pKi: > 7.00
Compound: NC(N)=NC(=O)c1cc(C(=O)NCCN2CCOCC2)cc(-c2cc(Cl)ccc2Cl)c1 [(a), [5-(2,5-dichlorophenyl)-3-[(2-morpholinoethyl)-carbamoyl]benzoyl]guanidine.dihydrochloride]
